Consider one molecule from patent US9566262B2, “Itch suppression by fucoxanthin” (THE RITSUMEIKAN TRUST, priority 2015, dated 2017).

Structures are written as SMILES. “Also recorded” adds a separate entry of the source.

Holding throughout (type): in vivo
One assay concerns filaggrin. Briefly: Semi-quantitative immunoblot of skin proteins of NC/Nga mice. As to conditions: topical treatment for 5 weeks, vs Vaseline. Here is the method: (§1) The immunoblot analysis was performed according to the method described in Kosaka, T. et al. (supra). Mice skin proteins were analyzed by SDS-10% polyacrylamide gel electrophoresis. The blots were incubated with a rabbit anti-filaggrin antibody (Santa Cruz Biotechnology, Inc., Santa Cruz, Calif.), a rabbit anti-actin antibody (Santa Cruz Biotechnology, Inc., Santa Cruz, Calif.) or a rabbit anti-loricrin antibody (Covance, Berkeley, Calif.), and then reacted with a horseradish peroxidase-conjugated anti-rabbit IgG or anti-donkey IgG (Santa Cruz Biotechnology, Inc.).
For orientation: A western blot detects proteins with antibodies after separation by electrophoresis.

Another assay deals with loricrin. The description is as above. As to conditions: topical treatment for 5 weeks, vs Vaseline. Here is the method:
as §1

For another assay, the system named is filaggrin (Flg). Briefly: Immunohistochemical analysis of skin of NC/Nga mice. To be noted: topical treatment for 5 weeks, vs Vaseline. Here is the method:
(§2) Vaseline or fucoxanthin and PiCl were applied to the mice in the same manner as described in Example 2. At 5 weeks after starting application of Vaseline or fucoxanthin, the mice were sacrificed the mice skins were fixed with 4% paraformaldehyde and analyzed according to the method described in Kosaka, T. et al. (supra). The skin section (10 μm thick) was analyzed immunohistochemically using a rabbit anti-filaggrin antibody (Santa Cruz Biotechnology, Inc.) and a rabbit anti-loricrin antibody (Covance). Then, the sample was reacted with an FITC-conjugated anti-rabbit IgG IgG (Santa Cruz Biotechnology, Inc.).

For the next assay, the system named is loricrin (Lor). Described as above. To be noted: topical treatment for 5 weeks, vs Vaseline. Here is the method:
as §2

In the next assay the test system is NC/Nga mice. Briefly: Serum IgE content by ELISA in NC/Nga mice. To be noted: topical application for 5 weeks, PiCl-sensitized, vs Vaseline. The source says:
NC/Nga mice (5 weeks old, female) were purchased from Japan SLC, Inc. […] On day 12, day 19, day 26 and day 33 after starting application of Vaseline or fucoxanthin, 0.8% picryl chloride (PiCl) was further applied to the back skin of the mice. The behaviors of the mice were observed by video monitoring. On day 34 after starting application of Vaseline or fucoxanthin, bromodeoxyuridine (BrdU, Nacalai Tesque) (0.[…] weight) was intraperitoneally administered to the mice. At 5 weeks after starting application of Vaseline or fucoxanthin, the time each mouse spent for scratching behavior in 10 minutes was measured by video monitoring. Then, the mice were sacrificed and the auricular lymph node, blood and skin were obtained. Serum IgE content was determined by enzyme-linked immunosorbent assay (ELISA) using Mouse IgE Assay Kit (Morinaga Institute of Biological Science, Inc.). […] BrdU uptake was determined by ELISA using Cell Proliferation ELISA, BrdU (Colorimetric) (Roche Diagnostics K.K.). […] Also, serum IgE levels and swelling of the auricular lymph nodes of the mice were determined in the same manner as described in Example 2.
Background: In an ELISA, binding on a coated surface is turned into a signal by an enzyme label.

On to `CC(=O)O[C@H]1CC(C)(C)C(=C=C/C(C)=C/C=C/C(C)=C/C=C/C=C(C)/C=C/C=C(\C)C(=O)C[C@@]23O[C@]2(C)C[C@@H](O)CC3(C)C)[C@](C)(O)C1` [fucoxanthin], for which the “filaggrin expression level in skin (western blot)” value in the assay on filaggrin is “elevated”. The “loricrin expression level in skin (western blot)” value in the assay on loricrin is listed as “elevated”. For the same molecule, the “filaggrin expression in the epidermis (immunohistochemistry)” value in the assay with filaggrin (Flg) was “elevated; also recorded: abundantly localized in the stratum corneum”. Besides, the “loricrin expression in the epidermis (immunohistochemistry)” value in the assay on loricrin (Lor) is “elevated; also recorded: distributed in the whole skin”. Further, the “serum IgE level” value in the assay with NC/Nga mice was “neither ear swelling (FIG. 9A) nor serum IgE level (FIG. 9B) were affected; also recorded: did not vary”.
